The text below walks through data of ChEMBL document CHEMBL5291721, “A preclinical secondary pharmacology resource illuminates target-adverse drug reaction associations of marketed drugs” (Nat Commun, 2023).

The target in test [1] is Beta-1 adrenergic receptor (Homo sapiens, UniProt P08588). Type of test: functional.
The next test addresses Vasopressin V2 receptor (Homo sapiens, UniProt P30518).
In the next test the target is Cannabinoid receptor 1 (Homo sapiens, UniProt P21554). It is filed as functional, cell-based.
Sequence of Cannabinoid receptor 1 (P21554 whole entry): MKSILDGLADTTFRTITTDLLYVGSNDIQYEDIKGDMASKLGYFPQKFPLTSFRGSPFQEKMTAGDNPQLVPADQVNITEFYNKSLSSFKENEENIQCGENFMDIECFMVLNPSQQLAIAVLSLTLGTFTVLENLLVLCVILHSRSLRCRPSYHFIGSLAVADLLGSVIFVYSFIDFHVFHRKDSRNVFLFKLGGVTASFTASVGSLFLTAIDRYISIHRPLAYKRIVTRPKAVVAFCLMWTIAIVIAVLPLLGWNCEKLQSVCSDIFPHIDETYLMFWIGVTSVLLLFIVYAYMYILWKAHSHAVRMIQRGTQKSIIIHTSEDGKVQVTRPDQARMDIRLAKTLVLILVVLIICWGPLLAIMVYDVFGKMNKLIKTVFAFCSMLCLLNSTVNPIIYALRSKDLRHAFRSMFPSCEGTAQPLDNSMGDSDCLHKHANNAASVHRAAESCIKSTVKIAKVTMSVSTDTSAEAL
Test [2] has as its target Gamma-aminobutyric acid receptor subunit alpha-1 (Rattus norvegicus, UniProt P62813). It is filed as functional.
Another test deals with Histamine H2 receptor (Homo sapiens, UniProt P25021). Type of test: functional, cell-based.
Sequence of Histamine H2 receptor (P25021 whole entry): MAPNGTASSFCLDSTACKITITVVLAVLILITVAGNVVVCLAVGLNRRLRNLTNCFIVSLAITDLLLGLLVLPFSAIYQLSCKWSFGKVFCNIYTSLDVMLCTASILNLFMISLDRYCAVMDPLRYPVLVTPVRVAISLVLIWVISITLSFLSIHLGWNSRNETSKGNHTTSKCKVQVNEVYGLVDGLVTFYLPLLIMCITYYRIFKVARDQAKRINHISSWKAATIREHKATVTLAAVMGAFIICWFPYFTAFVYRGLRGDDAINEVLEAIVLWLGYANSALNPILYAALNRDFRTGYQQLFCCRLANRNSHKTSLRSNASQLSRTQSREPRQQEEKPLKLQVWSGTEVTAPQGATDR
The target of test [3] is 5-hydroxytryptamine receptor 2B (Homo sapiens, UniProt P41595). Type of test: functional, cell-based.
Sequence of 5-hydroxytryptamine receptor 2B (P41595 whole entry): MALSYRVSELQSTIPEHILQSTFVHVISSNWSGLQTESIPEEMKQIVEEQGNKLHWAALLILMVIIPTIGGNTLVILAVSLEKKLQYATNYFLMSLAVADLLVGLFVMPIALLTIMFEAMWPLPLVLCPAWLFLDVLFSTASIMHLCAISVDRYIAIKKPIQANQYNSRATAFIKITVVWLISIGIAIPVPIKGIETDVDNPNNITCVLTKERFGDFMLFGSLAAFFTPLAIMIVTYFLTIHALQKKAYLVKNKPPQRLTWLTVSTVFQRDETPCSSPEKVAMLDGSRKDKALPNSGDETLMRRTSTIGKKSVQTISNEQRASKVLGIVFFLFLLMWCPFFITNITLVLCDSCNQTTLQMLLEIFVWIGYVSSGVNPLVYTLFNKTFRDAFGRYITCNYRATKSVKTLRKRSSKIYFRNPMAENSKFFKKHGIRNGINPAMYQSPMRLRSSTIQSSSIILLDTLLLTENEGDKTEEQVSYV
Test [4] has as its target T1, Neuropeptide Y receptor type 1 (Homo sapiens, UniProt P25929).
T1 sequence (P25929 whole entry): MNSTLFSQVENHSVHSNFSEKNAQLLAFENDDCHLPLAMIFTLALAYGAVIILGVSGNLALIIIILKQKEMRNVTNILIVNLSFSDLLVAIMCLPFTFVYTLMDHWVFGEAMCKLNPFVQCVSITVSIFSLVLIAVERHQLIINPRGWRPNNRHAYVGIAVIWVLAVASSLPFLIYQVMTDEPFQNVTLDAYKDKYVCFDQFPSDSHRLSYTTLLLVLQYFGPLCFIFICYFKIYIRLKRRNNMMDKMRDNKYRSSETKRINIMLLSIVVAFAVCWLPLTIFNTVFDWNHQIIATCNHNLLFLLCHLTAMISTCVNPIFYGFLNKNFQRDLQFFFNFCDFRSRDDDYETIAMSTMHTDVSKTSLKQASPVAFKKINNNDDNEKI

Test [5] has as its target Delta-type opioid receptor (Homo sapiens, UniProt P41143).
Test [6] deals with T2, Equilibrative nucleoside transporter 1 (Homo sapiens, UniProt Q99808).
T2 sequence (Q99808 whole entry): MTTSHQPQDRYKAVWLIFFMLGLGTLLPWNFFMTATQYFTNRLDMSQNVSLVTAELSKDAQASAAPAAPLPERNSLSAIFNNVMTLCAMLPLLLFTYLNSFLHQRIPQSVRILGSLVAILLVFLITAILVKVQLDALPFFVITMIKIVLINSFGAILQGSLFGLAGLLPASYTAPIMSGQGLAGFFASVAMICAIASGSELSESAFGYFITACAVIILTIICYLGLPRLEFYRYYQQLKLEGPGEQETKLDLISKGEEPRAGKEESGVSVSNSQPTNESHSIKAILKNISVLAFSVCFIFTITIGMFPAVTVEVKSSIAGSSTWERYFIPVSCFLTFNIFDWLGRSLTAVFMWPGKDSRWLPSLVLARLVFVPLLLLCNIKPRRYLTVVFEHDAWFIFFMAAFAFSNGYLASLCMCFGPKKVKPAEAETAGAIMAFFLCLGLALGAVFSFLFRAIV

The target of test [7] is Sodium-dependent noradrenaline transporter (Homo sapiens, UniProt P23975).
Sequence of Sodium-dependent noradrenaline transporter (P23975 whole entry): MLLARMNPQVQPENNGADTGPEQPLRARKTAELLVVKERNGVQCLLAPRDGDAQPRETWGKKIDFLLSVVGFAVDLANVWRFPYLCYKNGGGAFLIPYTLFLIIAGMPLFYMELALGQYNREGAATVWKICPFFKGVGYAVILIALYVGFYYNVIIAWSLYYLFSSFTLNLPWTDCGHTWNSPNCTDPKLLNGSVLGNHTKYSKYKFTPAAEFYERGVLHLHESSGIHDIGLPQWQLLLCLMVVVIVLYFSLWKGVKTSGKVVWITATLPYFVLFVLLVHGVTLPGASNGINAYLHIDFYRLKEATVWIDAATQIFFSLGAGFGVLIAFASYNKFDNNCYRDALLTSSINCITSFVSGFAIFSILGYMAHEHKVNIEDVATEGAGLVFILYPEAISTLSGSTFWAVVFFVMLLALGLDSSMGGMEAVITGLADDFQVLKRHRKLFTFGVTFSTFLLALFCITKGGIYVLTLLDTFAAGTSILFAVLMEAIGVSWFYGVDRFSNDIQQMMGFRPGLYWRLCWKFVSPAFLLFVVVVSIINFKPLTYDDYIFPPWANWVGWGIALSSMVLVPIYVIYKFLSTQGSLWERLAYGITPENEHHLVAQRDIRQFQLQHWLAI
For test [8], the target named is T3, Amine oxidase [flavin-containing] A (Homo sapiens, UniProt P21397).
T3 sequence (P21397 whole entry): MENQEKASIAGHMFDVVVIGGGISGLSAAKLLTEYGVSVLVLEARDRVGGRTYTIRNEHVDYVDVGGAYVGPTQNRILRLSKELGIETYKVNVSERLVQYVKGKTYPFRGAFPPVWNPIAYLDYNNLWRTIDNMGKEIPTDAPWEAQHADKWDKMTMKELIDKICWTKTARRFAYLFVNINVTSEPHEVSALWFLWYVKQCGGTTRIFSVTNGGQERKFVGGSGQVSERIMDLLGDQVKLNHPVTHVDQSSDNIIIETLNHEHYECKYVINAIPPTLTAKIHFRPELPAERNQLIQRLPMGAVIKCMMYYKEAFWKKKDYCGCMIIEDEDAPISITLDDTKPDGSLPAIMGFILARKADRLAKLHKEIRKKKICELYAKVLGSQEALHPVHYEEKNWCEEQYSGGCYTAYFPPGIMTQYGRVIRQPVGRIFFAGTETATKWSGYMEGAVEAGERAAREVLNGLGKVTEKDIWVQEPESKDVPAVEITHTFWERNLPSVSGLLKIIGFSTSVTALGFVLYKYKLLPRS
It is filed as functional.

The target of test [9] is cGMP-inhibited 3',5'-cyclic phosphodiesterase 3A (Homo sapiens, UniProt Q14432). Type of test: functional.
Sequence of cGMP-inhibited 3',5'-cyclic phosphodiesterase 3A (Q14432 whole entry): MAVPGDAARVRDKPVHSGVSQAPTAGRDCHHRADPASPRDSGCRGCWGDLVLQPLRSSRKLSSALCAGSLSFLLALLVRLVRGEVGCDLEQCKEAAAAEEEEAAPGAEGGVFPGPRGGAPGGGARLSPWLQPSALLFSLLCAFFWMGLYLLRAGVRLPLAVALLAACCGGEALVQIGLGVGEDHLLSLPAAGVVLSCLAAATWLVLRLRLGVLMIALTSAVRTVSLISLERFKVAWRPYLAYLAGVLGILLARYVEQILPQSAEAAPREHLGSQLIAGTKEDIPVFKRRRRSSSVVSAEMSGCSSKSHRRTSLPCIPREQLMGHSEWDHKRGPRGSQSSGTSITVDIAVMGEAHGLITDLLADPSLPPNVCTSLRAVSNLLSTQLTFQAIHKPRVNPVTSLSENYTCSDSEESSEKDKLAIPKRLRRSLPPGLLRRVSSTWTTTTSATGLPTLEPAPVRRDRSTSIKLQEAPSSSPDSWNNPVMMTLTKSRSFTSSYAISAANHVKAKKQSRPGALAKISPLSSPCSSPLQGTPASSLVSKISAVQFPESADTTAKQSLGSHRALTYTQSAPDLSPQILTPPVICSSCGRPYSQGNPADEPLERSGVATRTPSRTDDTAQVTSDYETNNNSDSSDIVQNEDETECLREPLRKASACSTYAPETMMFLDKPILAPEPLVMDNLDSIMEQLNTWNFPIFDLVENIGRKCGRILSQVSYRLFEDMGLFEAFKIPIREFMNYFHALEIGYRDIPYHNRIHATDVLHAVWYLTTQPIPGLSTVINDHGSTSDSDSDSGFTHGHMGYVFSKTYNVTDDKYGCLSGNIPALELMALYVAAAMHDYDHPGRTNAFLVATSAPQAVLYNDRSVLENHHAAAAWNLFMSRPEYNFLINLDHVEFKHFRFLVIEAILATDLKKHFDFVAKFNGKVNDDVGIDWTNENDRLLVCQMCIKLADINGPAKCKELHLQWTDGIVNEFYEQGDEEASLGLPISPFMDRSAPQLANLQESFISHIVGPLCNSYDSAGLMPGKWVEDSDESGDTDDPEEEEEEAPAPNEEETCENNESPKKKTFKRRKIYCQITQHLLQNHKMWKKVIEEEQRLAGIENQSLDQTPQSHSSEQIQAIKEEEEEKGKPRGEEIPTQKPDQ

One may read the AC50 as the concentration at which the activity in the assay is half-maximal.
Further: assay procedure not described here.

Sequence of Vasopressin V2 receptor (P30518 whole entry): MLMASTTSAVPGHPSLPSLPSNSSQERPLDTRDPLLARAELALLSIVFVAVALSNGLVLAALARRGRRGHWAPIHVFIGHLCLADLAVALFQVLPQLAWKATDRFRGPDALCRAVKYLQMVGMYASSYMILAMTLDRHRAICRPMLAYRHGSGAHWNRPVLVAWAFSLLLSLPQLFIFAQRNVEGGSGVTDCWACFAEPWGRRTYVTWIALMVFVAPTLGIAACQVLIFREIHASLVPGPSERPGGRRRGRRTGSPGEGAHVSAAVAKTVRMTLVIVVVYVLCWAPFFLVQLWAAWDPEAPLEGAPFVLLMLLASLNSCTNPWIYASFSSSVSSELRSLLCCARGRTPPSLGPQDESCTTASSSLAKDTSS
Sequence of Gamma-aminobutyric acid receptor subunit alpha-1 (P62813 whole entry): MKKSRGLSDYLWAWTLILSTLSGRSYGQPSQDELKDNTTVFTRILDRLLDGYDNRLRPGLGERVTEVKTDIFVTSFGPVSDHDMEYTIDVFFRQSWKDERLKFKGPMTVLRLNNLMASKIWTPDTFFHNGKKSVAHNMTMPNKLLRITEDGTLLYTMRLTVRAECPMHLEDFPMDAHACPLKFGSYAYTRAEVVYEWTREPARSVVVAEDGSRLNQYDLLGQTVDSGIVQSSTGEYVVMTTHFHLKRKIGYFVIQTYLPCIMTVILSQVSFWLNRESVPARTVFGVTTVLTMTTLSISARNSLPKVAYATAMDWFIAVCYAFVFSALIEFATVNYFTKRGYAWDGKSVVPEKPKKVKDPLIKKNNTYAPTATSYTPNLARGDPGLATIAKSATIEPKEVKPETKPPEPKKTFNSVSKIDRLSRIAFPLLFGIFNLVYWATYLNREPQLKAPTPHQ
Sequence of Beta-1 adrenergic receptor (P08588 whole entry): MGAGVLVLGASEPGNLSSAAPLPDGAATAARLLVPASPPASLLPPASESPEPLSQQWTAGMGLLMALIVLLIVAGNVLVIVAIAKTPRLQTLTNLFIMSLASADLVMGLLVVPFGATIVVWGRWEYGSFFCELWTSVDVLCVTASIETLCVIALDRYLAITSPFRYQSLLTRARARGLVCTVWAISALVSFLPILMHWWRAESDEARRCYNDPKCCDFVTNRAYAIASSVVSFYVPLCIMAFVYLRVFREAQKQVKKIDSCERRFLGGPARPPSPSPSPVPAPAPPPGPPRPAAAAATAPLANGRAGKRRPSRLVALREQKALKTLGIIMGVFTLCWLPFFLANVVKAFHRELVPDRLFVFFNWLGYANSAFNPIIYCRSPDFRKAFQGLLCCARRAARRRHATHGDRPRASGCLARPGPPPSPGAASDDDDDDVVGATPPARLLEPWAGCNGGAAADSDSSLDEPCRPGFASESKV
Sequence of Delta-type opioid receptor (P41143 whole entry): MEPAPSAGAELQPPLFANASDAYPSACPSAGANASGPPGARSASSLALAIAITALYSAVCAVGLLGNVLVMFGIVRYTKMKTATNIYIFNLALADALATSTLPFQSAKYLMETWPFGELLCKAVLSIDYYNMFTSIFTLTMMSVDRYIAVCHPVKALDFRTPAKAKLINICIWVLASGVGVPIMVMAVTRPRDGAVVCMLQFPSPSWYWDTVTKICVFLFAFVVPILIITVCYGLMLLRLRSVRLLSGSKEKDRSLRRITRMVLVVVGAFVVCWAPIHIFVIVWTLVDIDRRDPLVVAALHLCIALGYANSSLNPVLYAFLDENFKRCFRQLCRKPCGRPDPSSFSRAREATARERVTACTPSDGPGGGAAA

Consider `CCOc1nc2cccc(C(=O)O)c2n1Cc1ccc(-c2ccccc2-c2nnn[nH]2)cc1`, for which the AC50 in [1] was more than 30 µM; on Vasopressin V2 receptor, more than 30 µM; on Cannabinoid receptor 1, more than 30 µM; in [2] it was more than 30 µM; at Histamine H2 receptor, more than 10 µM; in test [3], more than 30 µM. Also, the AC50 was more than 10 µM in [4]; more than 30 µM in test [5]; more than 30 µM in [6]; more than 30 µM in [7]; more than 30 µM in test [8]; 13 µM in [9].
For `CC(=O)Nc1ccc(CC(=O)O)cc1` [ACTARIT], the AC50 (in [1]; at Vasopressin V2 receptor; at Cannabinoid receptor 1; in test [2]; on Histamine H2 receptor; in test [3]) was more than 30 µM each time. The AC50 in test [4], in [5], in [6], in [7], in test [8] and in [9] was more than 30 µM each time.
Consider `CC(C(=O)O)c1ccc2oc(-c3ccc(Cl)cc3)nc2c1` (centres undefined) [BENOXAPROFEN], for which the AC50 (in test [1]; on Vasopressin V2 receptor; on Cannabinoid receptor 1; in test [2]; on Histamine H2 receptor; in test [3]) was more than 30 µM in each case. Moreover, the concentration at half-maximal activity (AC50) in test [4] is more than 30 µM; in test [5], more than 30 µM; in [6], more than 30 µM; in [7], more than 30 µM; in test [8], 26 µM; in test [9], more than 30 µM.
Turning to `CC1(C)S[C@@H]2[C@H](NC(=O)C(C(=O)O)c3ccccc3)C(=O)N2[C@H]1C(=O)O` (some centres undefined) [CARBENICILLIN], the concentration at half-maximal activity (AC50) (in test [1]; on Vasopressin V2 receptor; on Cannabinoid receptor 1; in [2]; on Histamine H2 receptor; in [3]) was more than 30 µM in each case. The half-maximal activity concentration (AC50) in test [4], in [5], in test [6], in [7], in test [8] and in test [9] was more than 30 µM throughout.
`Cc1nnc(SCC2=C(C(=O)O)N3C(=O)[C@@H](NC(=O)Cn4cnnn4)[C@H]3SC2)s1` [CEFAZOLIN]: the half-maximal activity concentration (AC50) in test [1] is more than 300 µM; at Vasopressin V2 receptor, more than 30 µM; at Cannabinoid receptor 1, more than 300 µM; in test [2] it was more than 300 µM; on Histamine H2 receptor, more than 30 µM; in [3] it was more than 300 µM. The AC50 in [4] is more than 30 µM; in [5], more than 300 µM; in [6] it was more than 300 µM; in test [7], more than 300 µM; in test [8], more than 300 µM; in [9], more than 300 µM.
With `CC(C)(O/N=C(\C(=O)N[C@@H]1C(=O)N2C(C(=O)[O-])=C(C[n+]3ccccc3)CS[C@H]12)c1csc(N)n1)C(=O)O` [CEFTAZIDIME], the AC50 in test [1] was more than 300 µM; at Vasopressin V2 receptor, more than 30 µM; at Cannabinoid receptor 1 it was more than 300 µM; in test [2], more than 300 µM; on Histamine H2 receptor, more than 30 µM; in [3], more than 300 µM. For the same molecule, the AC50 is more than 30 µM in test [4]; more than 300 µM in test [5]; more than 300 µM in [6]; more than 300 µM in test [7]; more than 300 µM in test [8]; more than 300 µM in [9].
Consider `CCCNC(=O)NS(=O)(=O)c1ccc(Cl)cc1` [CHLORPROPAMIDE], for which the AC50 is more than 10 µM in test [1]; more than 30 µM on Vasopressin V2 receptor; more than 30 µM at Cannabinoid receptor 1; more than 10 µM in test [2]; more than 10 µM on Histamine H2 receptor; more than 10 µM in test [3]. The half-maximal activity concentration (AC50) was more than 30 µM in test [4]; more than 30 µM in test [5]; more than 30 µM in [6]; more than 30 µM in test [7]; more than 10 µM in test [8]; more than 30 µM in test [9].
As for `Cc1nc(Nc2ncc(C(=O)Nc3c(C)cccc3Cl)s2)cc(N2CCN(CCO)CC2)n1` [DASATINIB], the concentration at half-maximal activity (AC50) (in test [1]; on Vasopressin V2 receptor; at Cannabinoid receptor 1; at Histamine H2 receptor; in test [3]; in test [4]) was more than 30 µM in each case. The half-maximal activity concentration (AC50) in [5] is 9.76 µM; in test [6], more than 30 µM; in test [7], 6.3 µM; in test [8] it was more than 30 µM; in [9], more than 30 µM.
As to `CC(C)Cc1ccc([C@H](C)C(=O)O)cc1` [DEXIBUPROFEN], the AC50 (in [1]; at Cannabinoid receptor 1; in test [2]; in test [3]; in [5]; in test [6]) was more than 30 µM each time. For the same molecule, the concentration at half-maximal activity (AC50) in test [7], in test [8] and in test [9] was more than 30 µM throughout.
As to `Cc1onc(-c2c(F)cccc2Cl)c1C(=O)N[C@@H]1C(=O)N2[C@@H]1SC(C)(C)[C@@H]2C(=O)O` [FLOXACILLIN], the half-maximal activity concentration (AC50) (in [1]; at Cannabinoid receptor 1; in test [2]; in [3]; in [5]; in test [6]) was more than 30 µM in each case. For the same molecule, the AC50 in [7], in [8] and in test [9] was more than 30 µM throughout.
`CC[C@@H](CO)NC(=O)[C@@H]1C=C2c3cccc4c3c(cn4C)C[C@H]2N(C)C1` [METHYSERGIDE]: the concentration at half-maximal activity (AC50) was more than 30 µM on Vasopressin V2 receptor; more than 30 µM on Cannabinoid receptor 1; more than 10 µM in test [2]; 2.78 µM at Histamine H2 receptor; more than 30 µM in test [4]; more than 30 µM in test [5]. In addition, the half-maximal activity concentration (AC50) in [6] was more than 30 µM; in test [7], more than 30 µM; in [8], more than 10 µM; in test [9], more than 30 µM.
With `CN1Cc2c(N)cccc2C(c2ccccc2)C1` (centres undefined) [NOMIFENSINE], the half-maximal activity concentration (AC50) (at Vasopressin V2 receptor; at Cannabinoid receptor 1; in test [2]; at Histamine H2 receptor; in test [3]; in test [4]) was more than 30 µM each time. The AC50 in test [5], in [6], in [8] and in test [9] was more than 30 µM in each case.
Take `CC(C)C[C@H](NC(=O)[C@@H](O)[C@H](N)Cc1ccccc1)C(=O)O` [UBENIMEX]: the half-maximal activity concentration (AC50) (in [1]; at Cannabinoid receptor 1; in [2]; at Histamine H2 receptor; in test [3]; in test [5]) was more than 30 µM in each case. The AC50 in test [6], in test [7], in [8] and in test [9] was more than 30 µM throughout.
Consider `COc1cc(C(=O)NS(=O)(=O)c2ccccc2C)ccc1Cc1cn(C)c2ccc(NC(=O)OC3CCCC3)cc12` [ZAFIRLUKAST], for which the AC50 in [1] is more than 10 µM; at Vasopressin V2 receptor, more than 10 µM; on Cannabinoid receptor 1, 30 µM; in [2], more than 10 µM; on Histamine H2 receptor it was more than 10 µM; in test [4] it was more than 10 µM. The AC50 in test [5] was more than 30 µM; in [6], more than 10 µM; in test [7], more than 10 µM; in test [8] it was more than 10 µM; in test [9], 14 µM.
